Assay results from article PMC2932859 (Journal of medicinal chemistry, 2010).
Entries after “also recorded” stand apart in the source; their conditions may differ.

Experiments:
P. falciparum ENR = conditions: read-out: IC50 against P. falciparum ENR; cited from earlier work
[1] = test system: tachyzoites of RH strain of T. gondii; assay: Inhibition of T. gondii tachyzoites in vitro; format: cell-based, Toxoplasma gondii; conditions: uptake of tritiated uracil
[2] = test system: human foreskin fibroblasts (HFF); assay: Toxicity for host cells; format: cell-based; conditions: uptake of 3H thymidine by nonconfluent HFF
TgENR = molecular target: T1, TgENR (Toxoplasma gondii, UniProt Q6UCJ9); assay: TgENR inhibitor assay; format: biochemical; conditions: for Inhibition of TgENR, in words: recombinant TgENR enzyme assay
T1 sequence (Q6UCJ9 28-417): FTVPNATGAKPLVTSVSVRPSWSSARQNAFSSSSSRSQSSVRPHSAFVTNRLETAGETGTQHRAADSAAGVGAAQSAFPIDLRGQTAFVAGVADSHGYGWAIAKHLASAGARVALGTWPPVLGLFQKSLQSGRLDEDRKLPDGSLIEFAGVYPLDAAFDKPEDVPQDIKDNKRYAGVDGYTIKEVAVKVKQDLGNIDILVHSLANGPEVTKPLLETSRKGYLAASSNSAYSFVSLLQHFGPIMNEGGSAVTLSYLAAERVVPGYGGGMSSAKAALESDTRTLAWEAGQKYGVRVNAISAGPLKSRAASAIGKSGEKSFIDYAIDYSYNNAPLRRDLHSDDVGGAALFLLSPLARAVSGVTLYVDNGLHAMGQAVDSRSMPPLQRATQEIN

[3] = test system: T. gondii (RH strain, Type 1); assay: Testing of inhibitors in vivo, acute parenteral infection of mice; parameters: species or system Toxoplasma gondii; conditions: for Parasite burden in mice: CD1 mice infected intraperitoneally with 2000 T. gondii, inhibitors intraperitoneally at 10mg/kg, peritoneal cavity, day 5 post-infection, P<0.05; for Efficacy in protecting mice against parasite burden relative to triclosan: higher than triclosan itself
[4] = Human liver microsomal stability; format: in vitro ADME; conditions: compared with control drug verapamil
E. coli ENR = conditions: cited from earlier work
S. aureus ENR = conditions: cited from earlier work
[5] = earlier studies; cited from earlier work

**Q.** For O=[N+]([O-])c1ccc(Oc2ccc(Cl)cc2O)c(Cl)c1 [Compound 2], which IC50 (P. falciparum ENR) is on record?
**A.** Its IC50 is 200 nM.

**Q.** What about the “Effect on T. gondii tachyzoites in tissue culture, in words” value [1] of the same compound?
**A.** The value was “inhibition of T. gondii tachyzoites”.

**Q.** What about the “Toxicity to fibroblasts, in words” value [2] of the same compound?
**A.** The value was “lack of inhibition of fibroblast growth”.

**Q.** And the IC50 (TgENR)?
**A.** The IC50 was 45 nM.

**Q.** And the “Inhibition of TgENR, in words” value (TgENR)?
**A.** The value was “highly active”.

**Q.** What about the “Parasite burden in mice” value [3] of the same compound?
**A.** The value was “reduce parasite burden”.

**Q.** And the “Efficacy in protecting mice against parasite burden relative to triclosan” value [3]?
**A.** The value was “approximately 5 times”.

**Q.** And the “Intrinsic clearance, metabolic rate in HLM, in words” value [4]?
**A.** Its value is “slower than the control drug verapamil”.

**Q.** With Oc1cc(Cl)ccc1Oc1ccc(-c2ccccc2)cc1 [Compound 6] as the compound, how does the IC50 (TgENR) read?
**A.** The IC50 was over 2000 nM.

**Q.** For Oc1cc(Cl)ccc1Oc1cccnc1 [Compound 17], which “Inhibition of TgENR, in words” value (TgENR) is on record?
**A.** The value was “some activity”.

**Q.** For Oc1cc(Cl)ccc1Oc1cnccn1 [Compound 18], which “Inhibition of TgENR, in words” value (TgENR) is on record?
**A.** Its value is “no activity”.

**Q.** Which results are given for CCCc1ccc(Oc2ccc(C#N)cc2Cl)c(O)c1 [Compound 19]?
**A.** Effect on T. gondii tachyzoites in tissue culture, in words [1]: inhibition of T. gondii tachyzoites; also recorded: efficacious; Toxicity to fibroblasts, in words [2]: lack of inhibition of fibroblast growth; also recorded: not toxic; Parasite burden in mice [3]: reduce parasite burden; Efficacy in protecting mice against parasite burden relative to triclosan [3]: approximately 5 times; Intrinsic clearance, metabolic rate in HLM, in words [4]: slower than the control drug verapamil

**Q.** With CCCc1ccc(Oc2cccc(B(O)O)c2)c(O)c1 [Compound 20, 3-(2-Hydroxy-4-propylphenoxy)phenyl boronic acid] as the compound, how does the “Inhibition of TgENR, in words” value (TgENR) read?
**A.** The value was “very effective inhibitor”.

**Q.** Which results are given for C/C=C/C=C/C(=O)Nc1ccc(Oc2ccc(Cl)cc2O)cc1 [Compound 25, Hexa-2,4-dienoic acid (4-(4-chloro-2-hydroxyphenoxy)-phenyl)amide]?
**A.** Effect on T. gondii tachyzoites in tissue culture, in words [1]: lack of inhibition; Toxicity to fibroblasts, in words [2]: toxic

**Q.** For O=c1cc(OCc2ccccc2)ccn1Cc1ccc([N+](=O)[O-])cc1Cl [Compound 39], which “Effect on T. gondii tachyzoites in tissue culture, in words” value [1] is on record?
**A.** The value was “inhibition of T. gondii tachyzoites”.

**Q.** What about the “Toxicity to fibroblasts, in words” value [2] of the same compound?
**A.** Its value is “lack of inhibition of fibroblast growth”.

**Q.** And the “Inhibition of TgENR, in words” value (TgENR)?
**A.** The value was “low micro molar; also recorded: poor inhibitor”.

**Q.** What does the source list for CN(Cc1cc2ccccc2n1C)C(=O)/C=C/c1ccc(N)nc1 [Compound 50]?
**A.** Inhibition of TgENR, in words (TgENR): moderate activity; Activity against E. coli ENR, in words (E. coli ENR): very effective; Activity against S. aureus ENR, in words (S. aureus ENR): very effective

**Q.** For Oc1cc(Cl)ccc1Oc1ccc(Cl)cc1Cl [Triclosan], which “Safety in mice, in words” value [5] is on record?
**A.** The value was “safe”.
